Data from publication PMC10901950, “Neuroprotective and Anti-inflammatory Effects of Rubiscolin-6 Analogs with Proline Surrogates in Position 2” (Neurochemical Research, 2023).
Numbered stars: 1 amine (or outer) side, 2 acyl side, 3 side chain; on linkers, the order of the positions; unused ones are H or OH. Square brackets hold non-standard residues; d marks the D form. Ends that are not written are not given here. Peptide text beside a SMILES is read from it. Nip(3R) = O=C([C@@H]1CCCN([*:1])C1)[*:2]; Dmt = Cc1cc(O)cc(C)c1C[C@H](N)C(=O)O; Inp = O=C(O)C1CCNCC1

Columns and labels:
Caspase-3 = Caspase-3 activity in 6-OHDA-treated SH-SY5Y cells; assay type: cell-based, human; settings: 6-OHDA 100 µM, 6 h
Experimental: Caspase-3 activity was assessed using “Caspase-3 fluorometric assay” (Sigma, St. Louis, MO, USA) with minor changes adapted by Silva et al.. The cells were treated with 6-OHDA (100 µM) for 6 h in the presence or absence of peptides. After this period, the culture medium was removed, and cells were rinsed with ice-cold PBS and collected by centrifugation at 3300×g for 5 min. The pellets were resuspended in lysis buffer, incubated for about 20 min on ice and finally centrifuged at 22,500×g, 4 °C, for 20 min. Cell lysates were processed following the manufacturer’s protocol, and fluorescence was read at wavelengths of 360 nm (excitation) and 460 nm (emission). Caspase-3 activity was calculated through the curve slope and presented as Δ fluorescence (a.u.)/mg of protein/min). Staurosporine (STAU, 1 µM) was used as positive control.

AKT = experiment: Western blot, AKT phosphorylation in 6-OHDA-treated SH-SY5Y cells; assay type: cell-based, human; settings: for effect of peptide on AKT phosphorylation after LY 294002 pre-treatment: LY 294002 20 µM 30 min before peptide 10 µM and 6-OHDA 100 µM, 7.5 min (5), 2.5 min (7); for AKT phosphorylation / stimulation time for maximum effect on AKT phosphorylation: peptide 10 µM; for AKT phosphorylation: 2.5-10 min, 6-OHDA 100 µM treated cells; for stimulation time for maximum effect on AKT phosphorylation: 6-OHDA-treated cells, p-AKT (Ser473)/total AKT
Experimental: The neuroblastoma SH-SY5Y cells were grown in a 6-well plate and when 80–90% confluent treated with 6-OHDA (100 µM) for 24 h. Then cells were stimulated with peptides for 2.5, 5, 7.5 and 10 min (for AKT) or 24 h (for mTOR). When needed, a 30 min pre-incubation step with LY 294002 was included before analogs and 6-OHDA addition. Stimulation was terminated by aspiration of the medium. Cells were washed 2 times with ice-cold PBS, and then 200 µL of ice-cold lysis buffer [150 mM NaCl, 20 mM Tris–HCl, glycerol, 5 mM EDTA, 0.5 mM phenylmethylsulphonylfluoride (PMSF), 10% Triton X-100, 100 mM protease inhibitors, pH 7.4] was added. Cells were incubated on ice for 15 min. Lysates were then centrifuged at 12,000×g for 10 min at 4 °C, and the supernatants were used as the total cell lysates. The protein content in the supernatants was quantified using the Bio-Rad protein assay kit. Equal amounts of protein were separated on 10% sodium dodecyl sulfate (SDS)-polyacrylamide gels and transferred to polyvinylidene difluoride membranes from (PVDF, Millipore, Cork, Ireland). Non-specific binding was blocked with tris-buffered saline Tween-20 (TBS-T: 150 mM NaCl, 20 mM Tris–HCl, 0.1% Tween 20, pH 7.5) containing 5% nonfat milk for 2 h at room temperature. Then, the membrane was incubated overnight at 4 °C with one of the following specific primary antibodies: Vinculin (1:1000 dilution; Cell Signalling Technology, Danvers, MA, USA), p-AKT (1:1000 dilution; Cell Signalling Technology, Danvers, MA, USA), AKT (1:1000 dilution; Cell Signalling Technology, Danvers, MA, USA), p-mTOR (1:1000 dilution; Cell Signalling Technology, Danvers, MA, USA), mTOR (1:1000 dilution; Cell Signalling Technology, Danvers, MA, USA). After incubation, membranes were washed six times per 5 min with TBS-T. In the next step, membranes were incubated with HRP-conjugated secondary antibodies (1:1000 dilution; Cell Signalling Technology, Danvers, MA, USA) for 1 h. Following six washes with TBS-T, the protein bands were detected with the Clarity Western ECL reagent from Bio-Rad. The band intensity was quantified by NIH ImageJ densitometric analysis. For quantification, specific phosphorylation was calculated as the ratio of phosphorylated AKT or mTOR signals to the total Akt or mTOR signal detected. Values of unstimulated samples were set to 1.0. The original immunoblots are provided in Supplementary data.

[1] = system: LPS-stimulated RAW 264.7 cells; experiment: Nitric oxide production in LPS-stimulated RAW 264.7 cells (Griess); assay type: cell-based, mouse; settings: LPS 1 µg/mL, 24 h
Experimental: The level of NO production was determined in RAW 264.7 cells. Briefly, after cells attachment, they were treated with LPS (Millipore Sigma, Darmstadt, Germany) at 1 µg/mL for 24 h, and then the peptides were added for an additional 24 h. After cells’ treatment, the medium was collected, and the accumulation of NO metabolite in the cell culture supernatant was measured using Griess reagent (1% sulfanilamide and 0.1% naphthylethylenediamine dihydrochloride; Sigma Aldrich), where 50 µL of the supernatant was mixed with 50 µL of Griess reagent (40 mg/mL) in a 96-well plate. After incubation at room temperature and darkness for 10 min, the absorbance was measured at 540 nm. Cells treated with LPS without samples were used as the positive control of the inflammatory response.

[2] = system: Male Swiss albino CD1 mice; experiment: Spontaneous locomotor activity after icv injection; assay type: in vivo, mouse; settings: healthy mice, recording from 10 min after injection, 8-10 mice per group
Experimental: Male Swiss albino CD1 mice (JANVIER LABS, Le Genest-Saint-Isle, France), weighing 20–26 g, were used in the in vivo experiments. The animals were housed in Makrolon cages (L: 40 cm, W: 25 cm, H: 18 cm; 20 mice/cage), with free access to a standard semisynthetic laboratory diet (RM3, SDS, DIETEX-France, Saint-Gratien, France). All animals were kept in a ventilated room, at a temperature of 22 ± 1 °C, under a 12-h light/12-h dark cycle (lights on between 7:00 a.m. and 7:00 p.m.).
Intracerebroventricular (icv) injections (10 µL/mouse) of R-6 and its analogs were performed in the left brain ventricle of manually immobilized mice, with a Hamilton microsyringe ([…], Hamilton, Bonaduz, Switzerland) connected to a needle (length: 3.5 mm, diameter: 0.5 mm), as described elsewhere. Intracerebroventricular injections were performed by an experienced investigator, who frequently controlled the regularity and success of the injections using a methylene blue dye and observed (after sacrifice and frontal brain sectioning) that the injection was successful in more than 95% of trials. It was also verified in several animals, after sacrifice, that the mark of the needle puncture on the parietal bone was located at least 1.5 mm behind the bregma and at least 2.5 mm before the lambda, with laterality between 1 and 2 mm relative to the brain median line. This corresponds to stereotaxic coordinates of the left lateral ventricle in Lehmann’s atlas for mice (Lehmann, 1974): anteriority 2.95e4.15 mm, laterality 0.95e2 mm, and depth 3e4.5 mm. All drugs for icv administration were dissolved in 0.9% NaCl just before treatment. The icv injection method was approved by the Regional Ethical Committee for Animal Experimentation (Normandy; no. N/10-04-04-12).
Tested peptides were dissolved in DMSO and diluted with saline solution to the desired concentrations.
Locomotor activity was assessed automatically in a computerized actimeter (Omnitech Electronics, Inc., Columbus, Ohio, USA) which monitored horizontal displacements and vertical movements. Ten minutes after the icv injection, mice were placed individually in 20 × 20 × 30 cm compartments in a dimly illuminated and quiet room, and then motor activity was recorded. The responses were expressed as the number of crossed beams by the mouse during three consecutive 20 min periods.

[3] = peptide 0.1 µM (lowest concentration)

Molecule	effect on Caspase-3 activity induced by 6-OHDA (Caspase-3; peptides 0.1-10 µM)	effect of peptide on AKT phosphorylation after LY 294002 pre-treatment (AKT)	AKT phosphorylation (AKT)	stimulation time for maximum effect on AKT phosphorylation (AKT) [min]	NO level reached (relative to unstimulated control) ([1]; LPS alone exceeded 330%) [%]	effect on LPS-induced NO production [1, 3]	effect on spontaneous (horizontal) locomotor activity [2]	effect on LPS-induced NO production ([1]; peptide 10 µM)	effect on Caspase-3 activity induced by 6-OHDA (Caspase-3; peptide 10 µM)
CC(C)C[C@H](NC(=O)C1CCN(C(=O)[C@@H](N)Cc2ccc(O)cc2)CC1)C(=O)N[C@@H](CC(=O)O)C(=O)N[C@@H](CC(C)C)C(=O)N[C@@H](Cc1ccccc1)C(N)=O [analog 7, Tyr-Inp-Leu-Asp-Leu-Phe-NH2] (H-Y[Inp]LDLF-NH2)	most efficiently	significantly blocked	transiently stimulated	2.5	~125	most effectively reduced	do not affect locomotor activity		
YPLDLF [R-6, rubiscolin-6]	didn’t decrease						do not affect locomotor activity		
CC(C)C[C@H](NC(=O)C1CCN(C(=O)[C@@H](N)Cc2ccc(O)cc2)CC1)C(=O)N[C@@H](CC(=O)O)C(=O)N[C@@H](CC(C)C)C(=O)N[C@@H](Cc1ccccc1)C(=O)O [analog 3, Tyr-Inp-Leu-Asp-Leu-Phe-OH] (H-Y[Inp]LDLF-OH)	most efficiently		transiently stimulated	7.5		most effectively reduced	do not affect locomotor activity		
Cc1cc(O)cc(C)c1C[C@H](N)C(=O)N1CCC[C@@H](C(=O)N[C@@H](CC(C)C)C(=O)N[C@@H](CC(=O)O)C(=O)N[C@@H](CC(C)C)C(=O)N[C@@H](Cc2ccccc2)C(=O)O)C1 [analog 4, Dmt-(R)-Nip-Leu-Asp-Leu-Phe-OH] (H-[Dmt][Nip(3R)]LDLF-OH)						most effectively reduced			
Cc1cc(O)cc(C)c1C[C@H](N)C(=O)N1CCC(C(=O)N[C@@H](CC(C)C)C(=O)N[C@@H](CC(=O)O)C(=O)N[C@@H](CC(C)C)C(=O)N[C@@H](Cc2ccccc2)C(=O)O)CC1 [analog 5, Dmt-Inp-Leu-Asp-Leu-Phe-OH] (H-[Dmt][Inp]LDLF-OH)	active only at the highest dose	significantly blocked	transiently stimulated	7.5		most effectively reduced	do not affect locomotor activity	comparable to the level determined in unstimulated cells	
Cc1cc(O)cc(C)c1C[C@H](N)C(=O)N1CCC[C@H]1C(=O)N[C@@H](CC(C)C)C(=O)N[C@@H](CC(=O)O)C(=O)N[C@@H](CC(C)C)C(=O)N[C@@H](Cc1ccccc1)C(=O)O [analog 1, Dmt-Pro-Leu-Asp-Leu-Phe-OH] (H-[Dmt]PLDLF-OH)									showed the potency to suppress
